Source: patent US11440899B2, “Pyrimidine TBK/IKKe inhibitor compounds and uses thereof” (Merck Patent GmbH, priority 2017, dated 2022)
Where a name gives a salt, the structure may show the parent alone.

Assays:
[1] = molecular target: TBK1 (Homo sapiens (Human), UniProt Q9UHD2); test: TBK Biochemical Assay
Method in brief: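 Enzyme and substrate with compound (10-point 1:4 series, top 30 uM final, 1% DMSO) incubated 90 min at 25 °C, then stopped; substrate/product separated and read by LabChip mobility-shift, staurosporine 10 uM final as full-inhibition control.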

[2] = molecular target: IKKe (Homo sapiens (Human), UniProt Q14164); test: IKKe Biochemical Assay
Sequence of IKKe (Q14164 whole entry, species assumed): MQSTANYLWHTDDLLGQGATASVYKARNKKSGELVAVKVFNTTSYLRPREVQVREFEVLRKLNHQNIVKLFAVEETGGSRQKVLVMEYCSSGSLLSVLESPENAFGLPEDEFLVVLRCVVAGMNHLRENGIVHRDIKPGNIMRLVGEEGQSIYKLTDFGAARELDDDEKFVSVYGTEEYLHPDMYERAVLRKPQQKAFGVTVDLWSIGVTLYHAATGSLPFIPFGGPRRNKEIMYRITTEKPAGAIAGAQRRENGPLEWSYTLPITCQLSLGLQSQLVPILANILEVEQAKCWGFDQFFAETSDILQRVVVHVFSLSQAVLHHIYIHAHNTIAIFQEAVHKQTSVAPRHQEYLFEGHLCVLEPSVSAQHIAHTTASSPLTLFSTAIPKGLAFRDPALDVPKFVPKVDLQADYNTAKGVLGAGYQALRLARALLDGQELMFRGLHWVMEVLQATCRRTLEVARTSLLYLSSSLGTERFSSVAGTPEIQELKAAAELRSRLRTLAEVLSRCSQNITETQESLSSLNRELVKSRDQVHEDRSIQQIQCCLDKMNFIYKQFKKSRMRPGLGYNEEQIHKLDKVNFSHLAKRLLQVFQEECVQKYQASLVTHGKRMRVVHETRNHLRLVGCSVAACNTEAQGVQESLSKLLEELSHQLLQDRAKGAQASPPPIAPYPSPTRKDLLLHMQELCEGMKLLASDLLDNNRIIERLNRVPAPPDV
Method in brief: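 Human IKKε activity was measured with compounds in a 10-point 1:4 dilution series, top concentration 30 uM final, in 1% DMSO final; 10 uM staurosporine served as the control. Enzyme and substrate were incubated 90 min at 25° C, then stopped, and substrate/product peaks were separated by microfluidic mobility-shift on a LabChip EZ Reader II.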

Sequence of TBK1 (Q9UHD2 whole entry, species assumed): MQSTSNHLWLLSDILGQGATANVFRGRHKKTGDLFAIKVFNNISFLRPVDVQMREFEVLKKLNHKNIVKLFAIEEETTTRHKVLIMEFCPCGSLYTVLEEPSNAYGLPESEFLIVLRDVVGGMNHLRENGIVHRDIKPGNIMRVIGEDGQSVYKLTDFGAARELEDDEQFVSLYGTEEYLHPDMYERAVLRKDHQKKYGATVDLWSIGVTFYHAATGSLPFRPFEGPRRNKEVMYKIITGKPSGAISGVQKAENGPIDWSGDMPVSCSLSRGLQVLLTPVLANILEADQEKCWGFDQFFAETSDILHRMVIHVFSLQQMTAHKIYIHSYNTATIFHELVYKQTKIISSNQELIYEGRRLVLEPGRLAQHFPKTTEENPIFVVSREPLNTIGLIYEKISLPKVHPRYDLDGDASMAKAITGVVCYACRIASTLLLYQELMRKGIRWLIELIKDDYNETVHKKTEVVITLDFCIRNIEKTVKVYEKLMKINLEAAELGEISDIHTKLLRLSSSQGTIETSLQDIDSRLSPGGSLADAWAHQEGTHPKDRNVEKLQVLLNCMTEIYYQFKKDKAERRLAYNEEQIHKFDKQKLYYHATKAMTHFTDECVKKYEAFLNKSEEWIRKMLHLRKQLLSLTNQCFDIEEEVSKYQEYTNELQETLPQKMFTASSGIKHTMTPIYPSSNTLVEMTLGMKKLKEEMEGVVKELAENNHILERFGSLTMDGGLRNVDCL

| Structure (SMILES) | IC50 [1] | IC50 [2] |
| --- | --- | --- |
| COc1nc(Nc2cc(-c3ccc(OC4CCN(C(=O)[C@@H](C)O)CC4(F)F)c(C#N)c3)ncn2)ccc1N1CCN(C2COC2)C[C@@H]1C (stereo partly drawn) [Example 68, 2-([3,3-difluoro-1-[(2R)-2-hydroxypropanoyl]piperidin-4-yl]oxy)-5-[6-([6-methoxy-5-[(2S)-2-methyl-4-(oxetan-3-yl)piperazin-1-yl]pyridin-2-yl]amino)pyrimidin-4-yl]benzonitrile] | < 100 nM | < 100 nM |
| COc1nc(Nc2cc(-c3ccc(OC4CCNCC4(F)F)c(C#N)c3)ncn2)ccc1N1CCN(C2COC2)C[C@H]1C (stereo partly drawn) [Example 69, 2-[(3,3-difluoropiperidin-4-yl)oxy]-5-[6-({6-methoxy-5-[(2R)-2-methyl-4-(oxetan-3-yl)piperazin-1-yl]pyridin-2-yl}amino)pyrimidin-4-yl]benzonitrile] | < 100 nM | < 100 nM |
| COc1nc(Nc2cc(-c3ccc(OC4CCN(C(=O)[C@@H](C)O)CC4(F)F)c(C#N)c3)ncn2)ccc1N1CCN(C2COC2)C[C@H]1C (stereo partly drawn) [Example 70, 2-([3,3-difluoro-1-[(2R)-2-hydroxypropanoyl]piperidin-4-yl]oxy)-5-[6-([6-methoxy-5-[(2R)-2-methyl-4-(oxetan-3-yl)piperazin-1-yl]pyridin-2-yl]amino)pyrimidin-4-yl]benzonitrile] | < 100 nM | < 100 nM |
| COc1nc(Nc2cc(-c3ccc(OC4CCN(C(=O)[C@H](C)O)CC4(F)F)c(C#N)c3)ncn2)ccc1N1CCN(C2COC2)C[C@H]1C (stereo partly drawn) [Example 71, 2-([3,3-difluoro-1-[(2S)-2-hydroxypropanoyl]piperidin-4-yl]oxy)-5-[6-([6-methoxy-5-[(2R)-2-methyl-4-(oxetan-3-yl)piperazin-1-yl]pyridin-2-yl]amino)pyrimidin-4-yl]benzonitrile] | < 100 nM | < 100 nM |
| COc1nc(Nc2cc(-c3ccc(OC4CCN(C(=O)[C@H](C)O)CC4(F)F)c(C#N)c3)ncn2)ccc1N1CCN(C2COC2)C[C@@H]1C (stereo partly drawn) [Example 72, 2-([3,3-difluoro-1-[(2S)-2-hydroxypropanoyl]piperidin-4-yl]oxy)-5-[6-([6-methoxy-5-[(2S)-2-methyl-4-(oxetan-3-yl)piperazin-1-yl]pyridin-2-yl]amino)pyrimidin-4-yl]benzonitrile] | < 100 nM | < 100 nM |
| COc1nc(Nc2cc(-c3ccc(OC4CCNCC4(F)F)c(C#N)c3)ncn2)ccc1N1CCN(C)[C@H](C)C1 (stereo partly drawn) [Example 73, 2-[(3,3-difluoropiperidin-4-yl)oxy]-5-[6-({5-[(3R)-3,4-dimethylpiperazin-1-yl]-6-methoxypyridin-2-yl}amino)pyrimidin-4-yl]benzonitrile] | < 100 nM | < 100 nM |
| COc1nc(Nc2cc(-c3ccc(OC4CCN(C(=O)[C@H](C)O)CC4(F)F)c(C#N)c3)ncn2)ccc1N1CCN(C)[C@H](C)C1 (stereo partly drawn) [Example 74, 2-([3,3-difluoro-1-[(2S)-2-hydroxypropanoyl]piperidin-4-yl]oxy)-5-[6-([5-[(3R)-3,4-dimethylpiperazin-1-yl]-6-methoxypyridin-2-yl]amino)pyrimidin-4-yl]benzonitrile hydrochloride] | < 100 nM | < 100 nM |
| COc1nc(Nc2cc(-c3ccc(OC4CCN(C(=O)[C@@H](C)O)CC4(F)F)c(C#N)c3)ncn2)ccc1N1CCN(C)[C@H](C)C1 (stereo partly drawn) [Example 75, 2-([3,3-difluoro-1-[(2R)-2-hydroxypropanoyl]piperidin-4-yl]oxy)-5-[6-([5-[(3R)-3,4-dimethylpiperazin-1-yl]-6-methoxypyridin-2-yl]amino)pyrimidin-4-yl]benzonitrile hydrochloride] | < 100 nM | < 100 nM |
| COc1nc(Nc2cc(-c3ccc(OC4CCNCC4(F)F)c(C#N)c3)ncn2)ccc1N1CCN(C2COC2)CC1 (stereo not drawn) [Example 76, 2-[(3,3-difluoropiperidin-4-yl)oxy]-5-[6-({6-methoxy-5-[4-(oxetan-3-yl)piperazin-1-yl]pyridin-2-yl}amino)pyrimidin-4-yl]benzonitrile] | < 100 nM | < 100 nM |
| COc1nc(Nc2cc(-c3ccc(OC4CCN(C(=O)[C@@H](C)O)CC4(F)F)c(C#N)c3)ncn2)ccc1N1CCN(C2COC2)CC1 (stereo partly drawn) [Example 77, 2-([3,3-difluoro-1-[(2R)-2-hydroxypropanoyl]piperidin-4-yl]oxy)-5-[6-([6-methoxy-5-[4-(oxetan-3-yl)piperazin-1-yl]pyridin-2-yl]amino)pyrimidin-4-yl]benzonitrile] | < 100 nM | < 100 nM |
| COc1nc(Nc2cc(-c3ccc(OC4CCN(C(=O)[C@H](C)O)CC4(F)F)c(C#N)c3)ncn2)ccc1N1CCN(C2COC2)CC1 (stereo partly drawn) [Example 78, 2-([3,3-difluoro-1-[(2S)-2-hydroxypropanoyl]piperidin-4-yl]oxy)-5-[6-([6-methoxy-5-[4-(oxetan-3-yl)piperazin-1-yl]pyridin-2-yl]amino)pyrimidin-4-yl]benzonitrile] | < 100 nM | < 100 nM |
| COc1nc(Nc2cc(-c3ccc(O[C@H]4CCN(C(=O)c5cnn[nH]5)C[C@H]4F)c(C#N)c3)ncn2)ccc1N1CCN(C2COC2)CC1 [Example 79, 2-[[(3R,4S)-3-fluoro-1-[(1H-1,2,3-triazol-5-yl)carbonyl]piperidin-4-yl]oxy]-5-[6-([6-methoxy-5-[4-(oxetan-3-yl)piperazin-1-yl]pyridin-2-yl]amino)pyrimidin-4-yl]benzonitrile] | < 100 nM | < 100 nM |
| COc1nc(Nc2cc(-c3ccc(OC4CCNCC4(F)F)c(C#N)c3)ncn2)ccc1N1CCN(C)[C@@H](C)C1 (stereo partly drawn) [Example 80, 2-[(3,3-difluoropiperidin-4-yl)oxy]-5-[6-({5-[(3S)-3,4-dimethylpiperazin-1-yl]-6-methoxypyridin-2-yl}amino)pyrimidin-4-yl]benzonitrile] | < 100 nM | < 100 nM |
| COc1nc(Nc2cc(-c3ccc(OC4CCN(C(=O)[C@@H](C)O)CC4(F)F)c(C#N)c3)ncn2)ccc1N1CCN(C)[C@@H](C)C1 (stereo partly drawn) [Example 81, 2-([3,3-difluoro-1-[(2R)-2-hydroxypropanoyl]piperidin-4-yl]oxy)-5-[6-([5-[(3S)-3,4-dimethylpiperazin-1-yl]-6-methoxypyridin-2-yl]amino)pyrimidin-4-yl]benzonitrile] | < 100 nM | < 100 nM |
| COc1nc(Nc2cc(-c3ccc(OC4CCN(C(=O)[C@H](C)O)CC4(F)F)c(C#N)c3)ncn2)ccc1N1CCN(C)[C@@H](C)C1 (stereo partly drawn) [Example 82, 2-([3,3-difluoro-1-[(2S)-2-hydroxypropanoyl]piperidin-4-yl]oxy)-5-[6-([5-[(3S)-3,4-dimethylpiperazin-1-yl]-6-methoxypyridin-2-yl]amino)pyrimidin-4-yl]benzonitrile] | < 100 nM | < 100 nM |
| COc1nc(Nc2cc(-c3ccc(OC4CCOCC4)c(C#N)c3)ncn2)ccc1C(=O)NC1CN2CCC1CC2 (stereo not drawn) [Example 89, 6-((6-(3-cyano-4-((tetrahydro-2H-pyran-4-yl)oxy)phenyl)pyrimidin-4-yl)amino)-2-methoxy-N-(quinuclidin-3-yl)nicotinamide] | < 100 nM | < 100 nM |
| COc1nc(Nc2cc(-c3ccc(OC4CCOCC4)c(C#N)c3)ncn2)ccc1C(=O)N1C2CCCC1COC2 [Example 90, 5-(6-[[6-methoxy-5-([3-oxa-9-azabicyclo[3.3.1]nonan-9-yl]carbonyl)pyridin-2-yl]amino]pyrimidin-4-yl)-2-(oxan-4-yloxy)benzonitrile] | < 100 nM | < 100 nM |

More lines, now with the values ahead:

| IC50 [1] | IC50 [2] | Structure (SMILES) |
| --- | --- | --- |
| < 100 nM | < 100 nM | COc1nc(Nc2cc(-c3ccc(OC4CCNCC4(F)F)c(C#N)c3)ncn2)ccc1C1CCN(C2COC2)CC1 (stereo not drawn) [Example 83] |
| < 100 nM | < 100 nM | COc1nc(Nc2cc(-c3ccc(OC4CCN(C(=O)[C@H](C)O)CC4(F)F)c(C#N)c3)ncn2)ccc1C1CCN(C2COC2)CC1 (stereo partly drawn) [Example 84, 2-([3,3-difluoro-1-[(2S)-2-hydroxypropanoyl]piperidin-4-yl]oxy)-5-[6-([6-methoxy-5-[1-(oxetan-3-yl)piperidin-4-yl]pyridin-2-yl]amino)pyrimidin-4-yl]benzonitrile] |
| < 100 nM | < 100 nM | C[C@H](O)C(=O)N1CCC(Oc2ccc(-c3cc(Nc4ccc(N5CCN(C6COC6)CC5)cc4)ncn3)cc2C#N)C(F)(F)C1 (stereo partly drawn) [Example 85, 2-([3,3-difluoro-1-[(2S)-2-hydroxypropanoyl]piperidin-4-yl]oxy)-5-[6-([4-[4-(oxetan-3-yl)piperazin-1-yl]phenyl]amino)pyrimidin-4-yl]benzonitrile] |
| < 100 nM | 100 to 1000 nM | C[C@@H](O)C(=O)N1CCC(Oc2ccc(-c3cc(Nc4ccc(N5CCN(C6COC6)CC5)cc4)ncn3)cc2C#N)C(F)(F)C1 (stereo partly drawn) [Example 86, 2-([3,3-difluoro-1-[(2R)-2-hydroxypropanoyl]piperidin-4-yl]oxy)-5-[6-([4-[4-(oxetan-3-yl)piperazin-1-yl]phenyl]amino)pyrimidin-4-yl]benzonitrile] |
| < 100 nM | 100 to 1000 nM | COc1nc(Nc2cc(-c3ccc(NC4CCOCC4)c(C#N)c3)ncn2)ccc1C(=O)N(C)C [Example 87, 6-[(6-[3-cyano-4-[(oxan-4-yl)amino]phenyl]pyrimidin-4-yl)amino]-2-methoxy-N,N-dimethylpyridine-3-carboxamide] |
| < 100 nM | < 100 nM | COc1nc(Nc2cc(-c3ccc(OC4CCOCC4)c(C#N)c3)ncn2)ccc1C(=O)NCCO [Example 88, 6-([6-[3-cyano-4-(oxan-4-yloxy)phenyl]pyrimidin-4-yl]amino)-N-(2-hydroxyethyl)-2-methoxypyridine-3-carboxamide] |
| < 100 nM | < 100 nM | COc1nc(Nc2cc(-c3ccc(O[C@H]4CCN(C(=O)[C@H](C)O)CC4(F)F)c(C#N)c3)ncn2)ccc1N1CCN(C2COC2)CC1 [Example 91, 2-[[(4S)-3,3-difluoro-1-[(2S)-2-hydroxypropanoyl]piperidin-4-yl]oxy]-5-[6-([6-methoxy-5-[4-(oxetan-3-yl)piperazin-1-yl]pyridin-2-yl]amino)pyrimidin-4-yl]benzonitrile] |
